Reference: patent publication US10919885B2, “Compounds and uses thereof” (Yumanity Therapeutics, Inc., priority 2018, dated 2021)
Where “and” joins values, the source holds several entries; their conditions need not be identical. Equal values may be shown once.

Experiments:
[1] = biological target: human SCD1 (Homo sapiens (Human), UniProt O00767); assay: Yeast growth assay, strain expressing human SCD1 as the sole desaturase (reduced growth as surrogate for SCD inhibition); type: cell-based; conditions: yeast with OLE1 deleted expressing human SCD1 from a plasmid; growth read as OD600 after 40 h at 30° C.; top drug concentration 33.3 μM
In short: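 Yeast lacking OLE1 depend on plasmid-borne human SCD1 or SCD5 and are tested in SD-Ura medium without oleic/palmitoleic acid or Tween.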

[2] = biological target: human SCD5 (Homo sapiens (Human), UniProt Q86SK9); assay: Yeast growth assay, strain expressing human SCD5 as the sole desaturase (reduced growth as surrogate for SCD inhibition); type: cell-based; conditions: yeast with OLE1 deleted expressing human SCD5 from a plasmid; growth read as OD600 after 40 h at 30° C.; top drug concentration 33.3 μM
Method: Strains expressing SCD1 or SCD5 as the sole desaturase, the human SCD1 and SCD5 genes were used to evaluate inhibition of SCD1/SCD5 using reduced growth as a surrogate for SCD inhibition. These yeast strains express human SCD1 or SCD5 from a plasmid harbored in a strain in which the yeast OLE1 gene is deleted.
All compound profiling experiments were performed using the same basic protocol. Yeast were cultured using standard techniques in complete synthetic media lacking uracil and containing yeast nitrogen base supplemented with 2% (w/v) glucose (SD-Ura) Starter cultures were inoculated in 3 mL SD-Ura media containing 0.01% tween and 0.2 mM palmitoleic and oleic acid. Cultures were incubated overnight in a 30° C. shaker incubator (225 rpm). Saturated morning cultures were centrifuged, washed in SD-Ura media lacking TWEEN-20 and fatty acids, and then diluted 1:20 in fresh SD-Ura media also lacking TWEEN-20 and fatty acids.
Compound administration was performed in two separate steps. First, 15 μL of SD-Ura was dispensed into clear 384-well assay plates using a MULTIDROP™ Combi reagent dispenser. […] The cultures described above were centrifuged and washed with media lacking TWEEN-20 or oleic and palmitoleic acids.
After yeast delivery, assay plates were incubated under humidified conditions at 30° C. for 40 h. Yeast growth was monitored by reading the OD600 of each well using a microplate reader (Perkin Elmer EnVision™).

Chain of human SCD5 (Q86SK9 whole entry): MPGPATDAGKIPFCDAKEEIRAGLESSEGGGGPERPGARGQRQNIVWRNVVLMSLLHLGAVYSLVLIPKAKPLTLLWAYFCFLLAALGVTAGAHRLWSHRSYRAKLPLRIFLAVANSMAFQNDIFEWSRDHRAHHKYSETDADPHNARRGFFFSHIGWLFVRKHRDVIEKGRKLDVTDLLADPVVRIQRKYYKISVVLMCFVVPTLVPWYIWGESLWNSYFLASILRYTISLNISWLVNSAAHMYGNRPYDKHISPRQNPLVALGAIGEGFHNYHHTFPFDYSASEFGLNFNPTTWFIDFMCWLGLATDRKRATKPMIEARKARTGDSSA
Chain of human SCD1 (O00767 whole entry): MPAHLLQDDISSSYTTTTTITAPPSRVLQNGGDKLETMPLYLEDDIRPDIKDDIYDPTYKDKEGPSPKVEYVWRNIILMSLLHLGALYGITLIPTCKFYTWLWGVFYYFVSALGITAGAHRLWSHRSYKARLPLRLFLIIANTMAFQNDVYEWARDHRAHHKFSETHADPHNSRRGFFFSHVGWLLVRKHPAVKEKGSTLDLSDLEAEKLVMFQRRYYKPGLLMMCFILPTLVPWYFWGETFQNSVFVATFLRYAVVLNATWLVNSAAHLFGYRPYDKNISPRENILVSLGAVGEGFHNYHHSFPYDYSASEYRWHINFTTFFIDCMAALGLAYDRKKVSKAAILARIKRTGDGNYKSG

Row | IC50 [1] | IC50 [2] | SMILES
1 | > 45 µM | > 45 µM | O=C(Nc1cnn(Cc2ccccc2)c1)c1cc(-c2ccccc2Cl)on1 [Compound 141]
2 | > 45 µM | > 45 µM | CC(C)(C)OC(=O)n1cc(NC(=O)c2cc(-c3ccco3)on2)cn1 [Compound 12]
3 | > 45 µM | > 45 µM | O=C(c1cc(-c2ccccc2)on1)N1CC2(C1)CN(c1ccccc1)C2 [Compound 209]
4 | > 45 µM | > 45 µM | O=C(Nc1cnn(Cc2ccc(Cl)cc2)c1)c1cc(-c2ccco2)on1 [Compound 15]
5 | > 45 µM | > 45 µM | O=C(Nc1cnn(CC2CC2)c1)c1cc(-c2ccccc2)on1 [Compound 41]
6 | 2.04 µM | > 45 µM | O=C(Nc1cnn(Cc2cccc(F)c2)c1)c1cc(-c2ccccn2)on1 [Compound 54]
7 | > 45 µM | > 45 µM | Cc1nnc(-c2cc(C(=O)Nc3cnn(Cc4ccccc4)c3)no2)s1 [Compound 163]
8 | > 45 µM | > 45 µM | O=C(Nc1cnn(Cc2ccccn2)c1)c1cc(-c2ccccc2)on1 [Compound 40]
9 | > 45 µM | > 45 µM | O=C(Nc1cnn(Cc2ccccc2)c1)c1cc(-c2cccc3cnn(C4COC4)c23)on1 [Compound 96]
10 | > 45 µM | > 45 µM | C=C(C)c1cc(C(=O)Nc2cnn(Cc3cc(F)ccc3C(F)(F)F)c2)no1 [Compound 84]
11 | > 45 µM | 2.92 µM | O=C(c1cc(-c2ccc3c(c2)OCO3)on1)N1CCC1c1cccc(F)c1 (centres unmarked) [Compound 220, [5-(1,3-benzodioxol-5-yl)isoxazol-3-yl]-[2-(3-fluorophenyl)azetidin-1-yl]methanone]
12 | > 45 µM | > 45 µM | O=C(NC1CCN(Cc2ccccc2)C1)c1cc(-c2ccco2)on1 (centres unmarked) [Compound 337]
13 | > 45 µM | > 45 µM | COc1ccccc1-c1cc(C(=O)Nc2cnn(Cc3ccccc3)c2)no1 [Compound 136]
14 | > 45 µM | > 45 µM | O=C(Nc1cnn(Cc2ccccc2)c1)c1cc(-c2ccccn2)no1 [Compound 129]
15 | > 45 µM | > 45 µM | O=C(c1cc(-c2ccco2)on1)N(Cc1ccc(Cl)cc1)c1cnn(Cc2ccc(Cl)cc2)c1 [Compound 32]
16 | > 45 µM | 1.63 µM | Cn1ncc2ccc(-c3cc(C(=O)N4CC(c5ccccc5)C4)no3)cc21 [Compound 232, (5-(1-methyl-1H-indazol-6-yl)isoxazol-3-yl)(3-phenylazetidin-1-yl)methanone]
17 | 2.61 µM | 3.12 µM | O=C(c1cc(-c2ccccn2)on1)N1CC(c2ccccc2)C1 [Compound 233, (3-phenylazetidin-1-yl)(5-(pyridin-2-yl)isoxazol-3-yl)methanone]
18 | 0.66 µM | 7.17 µM | O=C(c1cc(-c2ccncc2)on1)N1CC(c2ccccc2)C1 [Compound 229, (3-phenylazetidin-1-yl)(5-(pyridin-4-yl)isoxazol-3-yl)methanone, trifluoroacetic acid]
19 | 36.8 µM | > 45 µM | O=C(c1cc(-c2ccnnc2)on1)N1CCC[C@H]1c1ccccc1 [Compound 433]
20 | > 45 µM | > 45 µM | CS(=O)(=O)CC(c1ccccc1)n1cc(NC(=O)c2cc(-c3ccccc3)on2)cn1 (centres unmarked) [Compound 80]
21 | 0.11 µM | 2 µM | O=C(Nc1cnn(Cc2ccccc2)c1)c1cc(C2CC2)on1 [Compound 119, N-(1-benzyl-1H-pyrazol-4-yl)-5-cyclopropylisoxazole-3-carboxamide]
22 | > 45 µM | > 45 µM | O=C(Nc1cnn(Cc2ccc(Cl)c(Cl)c2)c1)c1cc(-c2ccco2)on1 [Compound 29]
23 | > 45 µM | 7.35 µM | O=C(c1cc(-c2ccccc2C(F)(F)F)on1)N1CCC(c2ccccc2)C1 (centres unmarked) [Compound 346]
24 | 29 µM | > 45 µM | CC(=O)N1CCN(c2cc(C(=O)Nc3cnn(Cc4ccccc4)c3)no2)CC1 [Compound 184]
25 | 0.49 µM | > 45 µM | O=C(c1cc(-c2ccccc2)on1)N1CC(Oc2ccccc2)C1 [Compound 213]
26 | > 45 µM | > 45 µM | CN(C)CC(c1ccccc1)n1cc(NC(=O)c2cc(-c3ccccc3)on2)cn1 (centres unmarked) [Compound 113]

Row | IC50 [1] | IC50 [2] | SMILES
27 | > 45 µM | 2.6 µM | O=C(c1cc(-c2ccccc2)on1)N1CCC(c2ccccc2)C1 (centres unmarked) [Compound 330]
28 | > 45 µM | > 45 µM | O=C(c1cc(-c2ccc3c(c2)OCO3)on1)N1C[C@H](O)C[C@H]1c1ccccc1 [Compound 422]
29 | > 45 µM | > 45 µM | O=C(Nc1cnn(Cc2ccccc2)c1)c1cc(-c2cccc3c2cnn3C2COC2)on1 [Compound 97]
30 | > 45 µM | > 45 µM | N#Cc1ccc(-c2cc(C(=O)Nc3cnn(Cc4cc(F)ccc4C(F)(F)F)c3)no2)nc1 [Compound 99]
31 | > 45 µM | > 45 µM | N#Cc1cc(C(=O)Nc2cnn(Cc3cccc(F)c3)c2)no1 [Compound 169]
32 | > 45 µM | > 45 µM | O=C(c1cc(-c2ccccc2)on1)N1CCC(c2cccnc2)CC1 [Compound 322]
33 | > 45 µM | > 45 µM | CCOC(=O)c1cc(-c2cc(C(=O)Nc3cnn(Cc4cccc(F)c4)c3)no2)on1 [Compound 155]
34 | > 45 µM | > 45 µM | Cc1nn(C)c2cc(-c3conc3CN3C(=O)OCC3c3ccccc3)ccc12 (centres unmarked) [Compound 464]
35 | 8.2 µM | > 45 µM | O=C(Nc1cnn(Cc2cccc(F)c2)c1)c1cc(-c2nncs2)on1 [Compound 174]
36 | > 45 µM | > 45 µM | N#Cc1ccc(Cn2cc(NC(=O)c3cc(-c4ccccc4)on3)cn2)nc1 [Compound 63]
37 | > 45 µM | > 45 µM | COc1ccc(C2CCCN2C(=O)c2cc(-c3ccc(F)c(F)c3)on2)cc1 (centres unmarked) [Compound 378]
38 | 30.4 µM | 4.92 µM | O=C(c1cc(-c2ccc3c(c2)OCO3)on1)N1CCCC12CC2 [Compound 371]
39 | > 45 µM | > 45 µM | CNC(=O)c1ccc(-c2cc(C(=O)N3CC(Cc4ccccc4)C3)no2)cc1 [Compound 230]
40 | 0.048 µM | 1.9 µM | C=Cc1cc(C(=O)Nc2cnn(Cc3cccc(F)c3)c2)no1 [Compound 106, N-(1-(3-fluorobenzyl)-1H-pyrazol-4-yl)-5-vinylisoxazole-3-carboxamide]
41 | > 45 µM | 13 µM | O=C(c1noc2c1CCCC2)N1CC(Cc2ccccc2)C1 [Compound 253, 3-(3-benzylazetidine-1-carbonyl)-4,5,6,7-tetrahydro-1,2-benzoxazole]
42 | > 45 µM | > 45 µM | O=C(c1cc(-c2ccc3c(c2)OCO3)on1)N1CCCC1c1ncccc1F (centres unmarked) [Compound 457]
43 | > 45 µM | > 45 µM | O=C(Nc1ccnc(Oc2ccccc2)c1)c1cc(-c2ccccc2)on1 [Compound 312]
44 | 9 µM | 7 µM | C=C(C)c1cc(C(=O)Nc2cnn(Cc3ccccc3)c2)on1 [Compound 153]
45 | > 45 µM | > 45 µM | CC1(C(=O)Nc2ccccc2)CN(C(=O)c2cc(-c3ccccc3)on2)C1 [Compound 238]
46 | 3.24 µM | > 45 µM | CC(C)(C)OC(=O)n1cc(NC(=O)c2cc(-c3ccccc3)on2)cn1 [Compound 35]
47 | > 45 µM | > 45 µM | O=C(Nc1cnn(Cc2cccc(F)c2)c1)c1cc(CO)on1 [Compound 191]
48 | > 45 µM | > 45 µM | COc1cccnc1C1CCCN1C(=O)c1cc(-c2ccc3c(c2)OCO3)on1 (centres unmarked) [Compound 437]
49 | 30 µM and 33.9 µM | 3.5 µM and 2.28 µM | O=C(c1cc(-c2ccc3c(c2)OCO3)on1)N1CCC1c1ccccc1 (centres unmarked) [Compound 204, (5-(benzo[d][1,3]dioxol-5-yl)isoxazol-3-yl)(2-phenylazetidin-1-yl)methanone]
50 | > 45 µM | > 45 µM | O=C(Nc1cnn(Cc2ncccc2C(F)(F)F)c1)c1cc(-c2ccccc2F)on1 [Compound 196]
51 | > 45 µM | > 45 µM | O=C(c1cc(-c2ccc3c(c2)OCO3)on1)N1CCCC1c1cccnn1 (centres unmarked) [Compound 391]
52 | 22.6 µM | > 45 µM | O=C(Nc1cnn(Cc2cccc(F)c2)c1)c1cc(-c2ncccn2)on1 [Compound 46]

Row | SMILES | IC50 [1] | IC50 [2]
53 | O=C(c1cc(-c2ccccc2)on1)N1CCC2(CCNC2)C1 (centres unmarked) [Compound 340] | > 45 µM | > 45 µM
54 | COc1cccc(N2CCN(C(=O)c3cc(-c4ccc5c(c4)OCO5)on3)CC2)c1 [Compound 271, (5-(benzo[d][1,3]dioxol-5-yl)isoxazol-3-yl)(4-(3-methoxyphenyl)piperazin-1-yl)methanone] | > 45 µM | 4.71 µM
55 | N#Cc1ccccc1-c1cc(C(=O)N2CCC(c3ccccc3)CC2)no1 [Compound 326, 2-(3-(4-phenylpiperidine-1-carbonyl)isoxazol-5-yl)benzonitrile] | > 45 µM | 5.7 µM
